Data taken from patent US11883526B2 (priority 2019, dated 2024).

Assays:
[1] = tested on: subjects with MDD at imminent risk for suicide; assay: Beck Hopelessness Scale, BHS ([…]2001); type: in vivo, human; settings: 84 mg, ANCOVA LOCF, ITT
From the text: The BHS is a self-reported measure to assess one's level of negative expectations or pessimism regarding the future. It consists of 20 true-false items that examine the respondent's attitude over the past week by either endorsing a pessimistic statement or denying an optimistic statement. For every statement, each response is assigned a score of 0 or 1. The total BHS score is a sum of item responses and ranges from 0 to 20, with a higher score representing a higher level of hopelessness.

[2] = tested on: patients with treatment-resistant depression (TRD); assay: GAD-7 (Example 7); type: in vivo, human
Experimental: Overall illness severity was assessed on the Clinical Global Impression of Severity (CGI-S) scale (Guy, “ECDEU Assessment Manual for Psychopharmacology—Revised (DHEW Publ No ADM 76-338)”, Rockville, Md.: U.S. Department of Health, Education, and Welfare, Public Health Service, Alcohol, Drug Abuse, and Mental Health Administration, NIMH Psychopharmacology Research Branch, Division of Extramural Research Programs; 1976, pp 218-222). Participants assessed their severity of anxiety on the Generalized Anxiety Disorder 7-item (GADS-7) Scale (See, Tables 157 and 158). See, Spitzer, “A brief measure for assessing generalized anxiety disorder—the GAD-7”, Arch. Intern. Med., 2006, 166(10):1092-1097.

[3] = tested on: elderly subjects with TRD; settings: US patients aged ≥65 years
Experimental: Safety evaluation included reported adverse events, clinical laboratory tests, vital sign measurements, physical examinations, electrocardiograms and nasal examinations. Safety was assessed via treatment emergent AEs (TEAEs).

[4] = tested on: subjects with MDD at imminent risk for suicide; assay: MADRS total score, sustained response ([…]2001); type: in vivo, human; settings: 84 mg; for MADRS total score change from baseline, Diff. of LS Means (minus Placebo): ANCOVA LOCF
From the text: Primary efficacy variable/Primary Time point: Change from baseline (Day 1, predose) to Day 1, 4-hours postdose in MADRS total score. The MADRS consists of 10 items that cover all of the core depressive symptoms, with each item scoring from 0 (item is not present or is normal) to 6 (severe or continuous presence of the symptom). A higher score represents a more severe condition.
The primary efficacy endpoint is the change in MADRS total score from baseline to Day 1: 4-hours postdose. MADRS total scores range from 0 to 60. […] As this is a phase 2a proof-of-concept study, statistical significance is based on a two-sided alpha level of 0.20. All p-values presented in this document are two-sided.
Sustained response is defined as at least 50% reduction from baseline in MADRS total score with onset on Day 1: 4 hours postdose that is maintained through the end of the double-blind phase (Day 25). Four subjects in the esketamine 84 mg group and 2 subjects in the placebo group had sustained response throughout the double-blind phase.

[5] = tested on: adult subjects with TRD; settings: double-blind phase
Experimental: The MOAA/S was used to measure treatment-emergent sedation, with correlation to levels of sedation defined by the American Society of Anesthesiologists (ASA) continuum. The MOAA/S scores range from 0=no response to painful stimulus (corresponds to ASA continuum for general anesthesia) to 5=readily responds to name spoken in normal tone (awake; corresponds to ASA continuum for minimal sedation).
On each intranasal dosing day, the MOAA/S was performed every 15 minutes from pre-dose to t=+1.5 hours post-dose. If the score was ≤3 at any time during the 1.5 hours post-dose interval, the MOAA/S was performed every 5 minutes until a score of 4 is reached (at which point a frequency of every 15 minutes can be resumed until t=+1.5 hours post dose). […] For subjects with a score of 4, the assessment was repeated every 15 minutes. […]
The Modified Observer's Assessment of Alertness/Sedation (MOAA/S) was used to measure treatment-emergent sedation with correlation to levels of sedation defined by the American Society of Anesthesiologists (ASA) continuum. The MOAA/S scores ranged from 0 (No response to painful stimulus; corresponds to ASA continuum for general anesthesia) to 5 (Readily responds to name spoken in normal tone [awake]; corresponding to ASA continuum for minimal sedation).

## CN[C@]1(c2ccccc2Cl)CCCCC1=O [esketamine, (S)-2-(2-chlorophenyl)-2-(methylamino)cyclohexanone]
[1]; Day 1(DB): 4 H
  BHS total score change from baseline, Diff. of LS Means (minus Placebo): −1.5
[1]; End Point(DB)
  BHS total score change from baseline, Diff. of LS Means (minus Placebo): −2.3
[2]; Period 1, 28 mg
  GAD-7 change, LS mean difference from placebo (SE): −0.21 (1.461)
[2]; Period 1, 56 mg
  GAD-7 change, LS mean difference from placebo (SE): −1.40 (1.478)
[2]; Period 2, 56 mg
  GAD-7 change, LS mean difference from placebo (SE): 0.60 (1.033)
[3]
  patients who withdrew the nasal spray: 2 n
[4]; ≥50% MADRS reduction from Day 1 4 h through Day 25
  subjects with sustained response throughout the double-blind phase: Four
[4]; Day 1(DB): 4 H, ITT
  MADRS total score change from baseline, Diff. of LS Means (minus Placebo): −5.3
[4]; Day 2(DB), ITT
  MADRS total score change from baseline, Diff. of LS Means (minus Placebo): −7.2
[4]; End Point(DB), ITT
  MADRS total score change from baseline, Diff. of LS Means (minus Placebo): −4.5
[4]; ITT
  Day 25 sustained response (MADRS) No: no. of subjects: 30
[4]; all randomized analysis set
  Withdrawn from double-blind phase: Lack of Efficacy, percent of subjects: (2.8%)
[4]; all randomized analysis set, N = 36
  Withdrawn from double-blind phase: Lack of Efficacy, number of subjects: 1
[4]; at least 50 percent reduction from Day 1 through Day 25, ITT
  Day 25 sustained response (MADRS) Yes: no. of subjects: 4
[5]
  sedation (MOAA/S) resolved by: ≤ 1.5 hours postdose
